From US7405036B2, “Process for reducing pathogens in a biological sample and removing a sample pellet from a sample tube” (priority 2001, dated 2008)

Assays:
Campylobacter fetus = type: cell-based
Mycoplasma species = settings: 200 μg/ml; cited from earlier work
[1] = tested on: fresh semen of domestic bulls and gaur bulls; type: cell-based, Bos taurus, Bos gaur
[2] = tested on: bovine (Bos gaurus) sperm; experiment: Percoll density gradient with trypsin, viability of cryopreserved sperm
[3] = tested on: cultured cells and embryos; settings: up to 1000 μg/ml; cited from earlier work

Compound: CC[C@H]1OC(=O)C[C@@H](O)[C@H](C)[C@@H](O[C@@H]2O[C@H](C)[C@@H](O[C@H]3C[C@@](C)(O)[C@@H](O)[C@H](C)O3)[C@H](N(C)C)[C@H]2O)[C@@H](CC=O)C[C@@H](C)C(=O)/C=C/C(C)=C/[C@@H]1CO[C@@H]1O[C@H](C)[C@@H](O)[C@@H](OC)[C@H]1OC [tylosin]
- sensitivity of C. fetus to antibiotic (Campylobacter fetus): intermediate
- elimination of Mycoplasma species from bovine embryos (Mycoplasma species): capable of eliminating
- embryo viability (Mycoplasma species): without effecting embryo viability

Compound: trypsin
- acrosomal integrity [1]: nor any significant damage
- overall motility [1]: no significant reduction
- viability (vital staining) [1]: no reduction
- effect on sperm of increasing trypsin concentration [2]: no detrimental effects

Compound: CN[C@@H]1[C@H](O)[C@H](NC)[C@H]2O[C@@]3(O)C(=O)C[C@@H](C)O[C@H]3O[C@@H]2[C@H]1O [spectinomycin]
- sensitivity of C. fetus to antibiotic (Campylobacter fetus): intermediate

Compound: CCC[C@@H]1C[C@@H](C(=O)N[C@@H]([C@H]2O[C@H](SC)[C@H](O)[C@@H](O)[C@H]2O)[C@@H](C)O)N(C)C1 [lincomycin]
- sensitivity of C. fetus to antibiotic (Campylobacter fetus): sensitive

Compound: NC[C@H]1O[C@H](O[C@H]2[C@H](O)[C@@H](O[C@H]3O[C@H](CO)[C@@H](O)[C@H](N)[C@H]3O)[C@H](N)C[C@@H]2N)[C@H](O)[C@@H](O)[C@@H]1O [kanamycin]
- toxicity to cultured cells and embryos [3]: very little toxicity
